Measurements: US20210378244A1, “VIRUCIDAL COMPOSITIONS AND METHODS” (InExtreme Enterprises Pty Ltd, priority 2020, published 2021)

System: Gloeocapsa magma
Assay: Biological testing: visual rating of Gloeocapsa magma growth on inoculated plywood panels dipped in test solutions
Format: cell-based
Settings: for effect on biocidal activity when combined with DDAC and/or BAC (QAC): QAC or QAC mixture and additive at concentrations as in the tables, data not shown for urea and urea dihydrochloride
Procedure: Test Solutions and Tests: To prepare the various QAC solutions, the following materials where used: Stepan BTC 1010 (50% aqueous solution of didecyl dimethyl ammonium chloride) and Stepan BTC 12 Special (50% aqueous solution of alkyl dimethyl benzyl ammonium chloride). Urea Monohydrochloride was prepared by reacting solid urea with hydrochloric acid 20BE (32% aqueous solution) at a ratio of one Mol active HCl to one Mol urea. Both Urea and HCl 20 BE are readily commercially available.
Biological testing: Gloeocapsa magma was chosen as a bacterial species that served as a model system for corona virus in terms of surface adhesion and membrane characteristics. The bacteria were cultured in a petri dish and inoculated on plywood panels (10×10 cm). […] The panels were dipped in the testing solutions for 10 seconds and left to dry. 24 hours post immersion each panel was examined for presence of green (living bacteria). This was done visually and rated from 0 (no growth)) to 5 (full growth coverage).

Structure (SMILES) | biocidal effect (0.9% of DDAC in combination with the urea or other nitrogenous base-hydrochloride in water) | effect on biocidal activity when combined with DDAC and/or BAC (QAC)
CCCCCCCCCC[N+](C)(C)CCCCCCCCCC.[Cl-] [DDAC, didecyl dimethyl ammonium chloride] | same biocidal effect as 3% DDAC alone in water | –
Cl.NC(N)=O [UMC, Urea Monohydrochloride] | – | synergistic effect
Cl.Cl.NC(N)=O [urea dihydrochloride] | – | no impact in biocidal activity
NC(N)=O [urea] | – | no impact in biocidal activity
